In PubChem BioAssay (NCI):
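96-well plates; 48 h exposure; 5 concentrations. Endpoints by linear interpolation between flanking doses. Not reached: highest tested concentration assigned. TGI denotes the concentration required for complete inhibition of growth.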

Columns and labels:
Test in all cases: NCI tumour cell line growth inhibition, 48 h
COLO 205 colon = tested on: COLO 205 colon
OVCAR-5 ovarian = tested on: OVCAR-5 ovarian
NCI-H522 lung = tested on: NCI-H522 lung
SF-295 CNS = tested on: SF-295 CNS
OVCAR-3 ovarian = tested on: OVCAR-3 ovarian
A498 renal = tested on: A498 renal
SK-MEL-2 melanoma = tested on: SK-MEL-2 melanoma
EKVX NSCLC = tested on: EKVX NSCLC
HT29 colon = tested on: HT29 colon
MCF7 breast = tested on: MCF7 breast
SK-OV-3 ovarian = tested on: SK-OV-3 ovarian
OVCAR-8 ovarian = tested on: OVCAR-8 ovarian
HOP-92 NSCLC = tested on: HOP-92 NSCLC
RXF 393 renal = tested on: RXF 393 renal
KM20L2 colon = tested on: KM20L2 colon
OVCAR-4 ovarian = tested on: OVCAR-4 ovarian
LOX IMVI melanoma = tested on: LOX IMVI melanoma
DMS 273 small cell lung = tested on: DMS 273 small cell lung
U251 CNS = tested on: U251 CNS
DLD-1 colon = tested on: DLD-1 colon
SNB-75 CNS = tested on: SNB-75 CNS
KM12 colon = tested on: KM12 colon
SF-268 CNS = tested on: SF-268 CNS
UO-31 renal = tested on: UO-31 renal
CCRF-CEM leukemia = tested on: CCRF-CEM leukemia
SNB-78 CNS = tested on: SNB-78 CNS
A549 NSCLC = tested on: A549 NSCLC
CAKI-1 renal = tested on: CAKI-1 renal
HCT-15 colon = tested on: HCT-15 colon
DMS 114 small cell lung = tested on: DMS 114 small cell lung
SN12C renal = tested on: SN12C renal
HCC-2998 colon = tested on: HCC-2998 colon
K-562 leukemia = tested on: K-562 leukemia
MALME-3M melanoma = tested on: MALME-3M melanoma
SW-620 colon = tested on: SW-620 colon
NCI/ADR-RES ovarian = tested on: NCI/ADR-RES ovarian
HCT-116 colon = tested on: HCT-116 colon
SF-539 CNS = tested on: SF-539 CNS
HOP-18 NSCLC = tested on: HOP-18 NSCLC
HL-60(TB) leukemia = tested on: HL-60(TB) leukemia
P388 leukemia = tested on: P388 leukemia
IGROV1 ovarian = tested on: IGROV1 ovarian
UACC-62 melanoma = tested on: UACC-62 melanoma
NCI-H460 lung = tested on: NCI-H460 lung
XF 498 CNS = tested on: XF 498 CNS
P388/ADR leukemia = tested on: P388/ADR leukemia
RPMI-8226 leukemia = tested on: RPMI-8226 leukemia
NCI-H226 lung = tested on: NCI-H226 lung
M19-MEL melanoma = tested on: M19-MEL melanoma
UACC-257 melanoma = tested on: UACC-257 melanoma
SN12K1 renal = tested on: SN12K1 renal
NCI-H23 lung = tested on: NCI-H23 lung
HOP-62 NSCLC = tested on: HOP-62 NSCLC
SK-MEL-5 melanoma = tested on: SK-MEL-5 melanoma

## CC1C(O)C2(Oc3cc4c(c5c3[C@@H](CC5O)[C@H]2C)CCC2Cc3nc5c(nc3C[C@@]42C)CC2CCC3C4=C[C@H]6O[C@@]7(O[C@@](C)(CO)C[C@@H]7O)C(C)[C@@]6(O)[C@]4(C)[C@@H](O)CC3[C@]2(C)C5)OC1(C)C (some centres undefined)
COLO 205 colon
  TGI: 609 nM
OVCAR-5 ovarian
  TGI: 1320 nM
NCI-H522 lung
  TGI: 420 nM
SF-295 CNS
  TGI: 105 nM
OVCAR-3 ovarian
  TGI: 406 nM
A498 renal
  TGI: 208 nM
SK-MEL-2 melanoma
  TGI: 611 nM
EKVX NSCLC
  TGI: > 3670 nM
HT29 colon
  TGI: 456 nM
MCF7 breast
  TGI: > 3670 nM
SK-OV-3 ovarian
  TGI: 502 nM
OVCAR-8 ovarian
  TGI: 1360 nM
HOP-92 NSCLC
  TGI: > 3670 nM
RXF 393 renal
  TGI: 190 nM
KM20L2 colon
  TGI: 491 nM
OVCAR-4 ovarian
  TGI: > 3670 nM
LOX IMVI melanoma
  TGI: 892 nM
DMS 273 small cell lung
  TGI: 114 nM
U251 CNS
  TGI: 114 nM
DLD-1 colon
  TGI: > 3670 nM
SNB-75 CNS
  TGI: 84.2 nM
KM12 colon
  TGI: > 3670 nM
SF-268 CNS
  TGI: 641 nM
UO-31 renal
  TGI: 3140 nM
CCRF-CEM leukemia
  TGI: 194 nM
SNB-78 CNS
  TGI: 584 nM
A549 NSCLC
  TGI: 841 nM
CAKI-1 renal
  TGI: 975 nM
HCT-15 colon
  TGI: > 3670 nM
DMS 114 small cell lung
  TGI: 904 nM
SN12C renal
  TGI: > 3670 nM
HCC-2998 colon
  TGI: > 3670 nM
K-562 leukemia
  TGI: 367 nM
MALME-3M melanoma
  TGI: 660 nM
SW-620 colon
  TGI: 1050 nM
NCI/ADR-RES ovarian
  TGI: > 3670 nM
HCT-116 colon
  TGI: 1020 nM
SF-539 CNS
  TGI: 302 nM
HOP-18 NSCLC
  TGI: > 3670 nM
HL-60(TB) leukemia
  TGI: 177 nM
P388 leukemia
  TGI: 435 nM
IGROV1 ovarian
  TGI: 894 nM
UACC-62 melanoma
  TGI: 231 nM
NCI-H460 lung
  TGI: 386 nM
XF 498 CNS
  TGI: 343 nM
P388/ADR leukemia
  TGI: 1840 nM
RPMI-8226 leukemia
  TGI: > 3670 nM
NCI-H226 lung
  TGI: 1230 nM
M19-MEL melanoma
  TGI: > 3670 nM
UACC-257 melanoma
  TGI: > 3670 nM
SN12K1 renal
  TGI: 194 nM
NCI-H23 lung
  TGI: 654 nM
HOP-62 NSCLC
  TGI: 239 nM
SK-MEL-5 melanoma
  TGI: > 3670 nM
